Some test systems named below: EKVX; COLO 205; T47D; NCI-H23; OVCAR-5; NCI-H226; HCT-15; SK-MEL-28; NCI-H522; CCRF-CEM; HOP-62; LOX IMVI; MCF7; HCT-116; M14; NCI/ADR-RES; A549; NCI-H460.
Common to all, as to assay: growth of human tumour cells (NCI), 48 h

SMILES strings stand for the structures.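 Test compounds were applied to cells in 96-well plates for 48 hours at 5 doses. Here, GI50 denotes the concentration required for 50% inhibition of growth.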 Active and inactive are the calls of the source. Rule as the data show it: active = GI50 up to about 1.1 µM and inactive = higher.

As to `C=CC[C@@H]1C=C[C@@H](C(=O)OC)n2c(=O)n(-c3ccccc3)c(=O)n21`, the GI50 in the assay on EKVX, in the assay with COLO 205, in the assay with T47D, in the assay with NCI-H23, in the assay with OVCAR-5 and in the assay on NCI-H226 was > 100 µM (inactive) in each case. The GI50 is > 100 µM with HCT-15; > 100 µM (inactive) in the assay on SK-MEL-28; > 100 µM (inactive) in the assay on NCI-H522; > 100 µM (inactive) in the assay with CCRF-CEM; > 100 µM (inactive) in the assay with HOP-62; > 100 µM (inactive) in the assay on LOX IMVI. Further, the GI50 in the assay with MCF7, with HCT-116, in the assay with M14 and in the assay on NCI/ADR-RES was > 100 µM (inactive) in each case.
On to `CCOC(=O)Cc1nc2nn(Cc3ccccc3)cc2c(=O)[nH]1`, for which the GI50 in the assay on EKVX, in the assay on COLO 205, with T47D, in the assay with NCI-H23, in the assay on OVCAR-5 and in the assay on NCI-H226 was > 100 µM (inactive) throughout. Besides, the GI50 was > 100 µM in the assay on HCT-15; > 100 µM (inactive) with SK-MEL-28; > 100 µM (inactive) with A549; > 100 µM (inactive) with CCRF-CEM; > 100 µM (inactive) in the assay with HOP-62; > 100 µM (inactive) in the assay on NCI-H460. Further, the GI50 in the assay on LOX IMVI, in the assay with MCF7, in the assay with HCT-116 and in the assay on NCI/ADR-RES was > 100 µM (inactive) each time.
Turning to `Cc1c2c(c(O)c3c(O)cccc13)C(=O)C1(O)C(=O)C(C(=O)NCNc3ccc(C(N)=O)cn3)=C(O)C(N(C)C)C1C2` (stereo unspecified), the GI50 in the assay on EKVX is 4.33 µM (inactive); in the assay with COLO 205, 6.28 µM (inactive); with T47D, 5.61 µM (inactive); in the assay on NCI-H23, 7.74 µM (inactive); with OVCAR-5 it was 5.02 µM (inactive); with NCI-H226 it was 2.94 µM (inactive). For the same molecule, the GI50 was 2.8 µM in the assay with HCT-15; 3.53 µM (inactive) in the assay with SK-MEL-28; 2.96 µM (inactive) with A549; 2.94 µM (inactive) in the assay on CCRF-CEM; 6 µM (inactive) with HOP-62; 4.78 µM (inactive) in the assay with LOX IMVI. Besides, the GI50 is 9.27 µM (inactive) in the assay with MCF7, 4.06 µM (inactive) in the assay on HCT-116, 3.63 µM (inactive) with M14 and 5.5 µM (inactive) in the assay with NCI/ADR-RES.
With `c1ccc(C(CCN2CCCC2)c2ccccn2)cc1` (stereo unspecified), the GI50 in the assay on EKVX, with COLO 205, in the assay on T47D, with NCI-H23, with OVCAR-5 and with NCI-H226 was > 100 µM (inactive) each time. In addition, the GI50 with HCT-15 is > 100 µM; with SK-MEL-28, > 100 µM (inactive); in the assay with NCI-H522 it was > 100 µM (inactive); in the assay on A549, > 100 µM (inactive); in the assay with HOP-62, > 100 µM (inactive); in the assay with NCI-H460, > 100 µM (inactive). Also, the GI50 in the assay with LOX IMVI, in the assay on MCF7, in the assay with HCT-116, in the assay with M14 and in the assay with NCI/ADR-RES was > 100 µM (inactive) in each case.
As for `COC(=O)CN1SC2(SC13C(C)(C)C(=O)C3(C)C)C(C)(C)C(=O)C2(C)C`, the GI50 was 63.4 µM (inactive) with EKVX; 37.3 µM (inactive) in the assay on COLO 205; > 100 µM (inactive) in the assay with T47D; > 100 µM (inactive) in the assay on NCI-H23; > 100 µM (inactive) in the assay on OVCAR-5; 22.1 µM (inactive) in the assay on NCI-H226. Besides, the GI50 in the assay with HCT-15 is > 100 µM; in the assay on SK-MEL-28 it was > 100 µM (inactive); with A549 it was 51.2 µM (inactive); in the assay with CCRF-CEM, 11.1 µM (inactive); in the assay with HOP-62 it was 91 µM (inactive); in the assay with NCI-H460, > 10 µM (inactive). Besides, the GI50 in the assay on LOX IMVI was 46.9 µM (inactive); with MCF7, 54.2 µM (inactive); with HCT-116, 46 µM (inactive); in the assay with M14, > 100 µM (inactive); in the assay with NCI/ADR-RES it was 34.1 µM (inactive).
For the molecule `CN1CCC23c4c5ccc(O)c4OC2c2[nH]c4ccccc4c2CC3(O)C1C5` (stereo unspecified), the GI50 is 92.9 µM (inactive) with EKVX; 17.1 µM (inactive) with COLO 205; 20.8 µM (inactive) in the assay with T47D; > 100 µM (inactive) in the assay with NCI-H23; > 100 µM (inactive) in the assay with OVCAR-5; 25.6 µM in the assay on HCT-15. In addition, the GI50 with SK-MEL-28 is 13.7 µM (inactive); in the assay with NCI-H522 it was 37 µM (inactive); with A549 it was 53 µM (inactive); in the assay on CCRF-CEM, 22 µM (inactive); in the assay on HOP-62, > 100 µM (inactive); in the assay with NCI-H460, 29.2 µM (inactive). The GI50 with LOX IMVI is 21.5 µM (inactive); in the assay on MCF7, 36.3 µM (inactive); in the assay with HCT-116, 35.4 µM (inactive); with M14 it was 17.7 µM (inactive); in the assay with NCI/ADR-RES it was > 100 µM (inactive).
For the molecule `O=c1oc2ccccc2cc1/C=N/N1C(=S)N(c2ccccc2)C(=N\c2ccccc2)/C1=N/c1ccccc1`, the GI50 with EKVX is > 100 µM (inactive); in the assay on COLO 205 it was > 100 µM (inactive); with T47D, 3.49 µM (inactive); in the assay on NCI-H23, > 100 µM (inactive); in the assay on OVCAR-5, > 100 µM (inactive); with NCI-H226, > 100 µM (inactive). The GI50 in the assay on HCT-15 was > 100 µM; with SK-MEL-28 it was > 100 µM (inactive); in the assay with NCI-H522, 34 µM (inactive); with A549 it was > 100 µM (inactive); in the assay on HOP-62, 52.2 µM (inactive); with NCI-H460, 47.6 µM (inactive). For the same molecule, the GI50 with MCF7 was > 100 µM (inactive); with HCT-116 it was 41.4 µM (inactive); in the assay with M14, > 100 µM (inactive); with NCI/ADR-RES, > 100 µM (inactive).
Take `CCOC(=O)Nc1sc2c(c1C#N)CC(C)CC2` (stereo unspecified): the GI50 in the assay with EKVX is 24.7 µM (inactive); in the assay on COLO 205, 4.17 µM (inactive); in the assay with T47D, 10.5 µM (inactive); in the assay with NCI-H23 it was 25.6 µM (inactive); with OVCAR-5, 16.3 µM (inactive); in the assay on NCI-H226, 6.15 µM (inactive). Besides, the GI50 was 2.75 µM in the assay on HCT-15; 17.1 µM (inactive) in the assay with SK-MEL-28; 1.25 µM (inactive) in the assay on NCI-H522; 5.06 µM (inactive) with A549; 9.79 µM (inactive) in the assay with HOP-62; 3.41 µM (inactive) with NCI-H460. The GI50 was 10.2 µM (inactive) in the assay with LOX IMVI; 3.96 µM (inactive) in the assay with MCF7; 4 µM (inactive) in the assay on HCT-116; 2.66 µM (inactive) in the assay on M14; 1.96 µM (inactive) with NCI/ADR-RES.
As for `O=C1N=C(S)NNC12c1ccccc1-c1ccccc12`, the GI50 with EKVX is 2.99 µM (inactive); with COLO 205, > 10 µM (inactive); in the assay on T47D, 1.98 µM (inactive); in the assay with NCI-H23, > 10 µM (inactive); with NCI-H226 it was > 10 µM (inactive); in the assay with HCT-15, > 10 µM. Moreover, the GI50 in the assay on SK-MEL-28 is > 10 µM (inactive); in the assay on A549, > 10 µM (inactive); in the assay with CCRF-CEM, > 10 µM (inactive); in the assay on HOP-62, > 10 µM (inactive); in the assay with NCI-H460, 5.42 µM (inactive); in the assay with LOX IMVI, > 10 µM (inactive). Moreover, the GI50 is 8.71 µM (inactive) with MCF7, > 10 µM (inactive) in the assay on M14 and > 10 µM (inactive) in the assay on NCI/ADR-RES.
Turning to `CCOC(=O)c1ccc2nc(NC(=O)COC(=O)CSc3nc(C)cc(C)n3)sc2c1`, the GI50 was 18.5 µM (inactive) in the assay on EKVX; 99.1 µM (inactive) with COLO 205; 16.7 µM (inactive) in the assay with T47D; > 100 µM (inactive) in the assay on NCI-H23; 20.4 µM (inactive) with OVCAR-5; 46.6 µM with HCT-15. Besides, the GI50 in the assay on SK-MEL-28 was 97.3 µM (inactive); in the assay on NCI-H522, 64 µM (inactive); with A549 it was 42.9 µM (inactive); with CCRF-CEM it was 1.52 µM (inactive); in the assay on HOP-62, 13.7 µM (inactive); in the assay on NCI-H460, 38.7 µM (inactive). For the same molecule, the GI50 with LOX IMVI was 48 µM (inactive); in the assay with MCF7, 35.9 µM (inactive); with HCT-116, 77.3 µM (inactive); in the assay with M14, 41.6 µM (inactive); in the assay on NCI/ADR-RES, 48.4 µM (inactive).
Turning to `NC(=S)c1cccc(C2Nc3ccccc3O2)c1` (stereo unspecified), the GI50 was 0.019 µM (active) in the assay with EKVX; > 100 µM (inactive) in the assay on COLO 205; 46.7 µM (inactive) in the assay on T47D; 49.9 µM (inactive) in the assay with NCI-H23; > 100 µM (inactive) with OVCAR-5; 12.1 µM (inactive) in the assay with NCI-H226. The GI50 with HCT-15 was 21.9 µM; in the assay on SK-MEL-28 it was > 100 µM (inactive); in the assay with NCI-H522, 71.1 µM (inactive); with A549, 41.5 µM (inactive); with HOP-62, > 100 µM (inactive); with NCI-H460, 49.2 µM (inactive). In addition, the GI50 in the assay on MCF7 was 56.9 µM (inactive); in the assay with HCT-116, > 100 µM (inactive); in the assay on M14, > 100 µM (inactive); in the assay with NCI/ADR-RES it was 43.9 µM (inactive).
With `Clc1cccc(Cl)c1C1SCc2nc3cc4ccccc4cc3n21` (stereo unspecified), the GI50 with EKVX, in the assay on COLO 205, in the assay with T47D, in the assay on NCI-H23, in the assay with OVCAR-5 and with NCI-H226 was > 100 µM (inactive) throughout. Also, the GI50 was > 100 µM with HCT-15; > 100 µM (inactive) in the assay with SK-MEL-28; > 100 µM (inactive) in the assay on A549; > 100 µM (inactive) in the assay with CCRF-CEM; > 100 µM (inactive) in the assay on HOP-62; > 100 µM (inactive) in the assay on NCI-H460. The GI50 in the assay on MCF7, in the assay on HCT-116, with M14 and in the assay on NCI/ADR-RES was > 100 µM (inactive) each time.

Values taken from ChEMBL document CHEMBL1201862, “PubChem BioAssay data set” (2004).
